The source of these data is patent US3956336A, “9-Alkoxy-5-methyl-6,7-benzomorphans” (Bristol-Myers Company, priority 1975, dated 1976).

Common to all, as to format: in vivo
The test system of assay [1] is analgesic effect induced by morphine. Description: animal or person. The settings on record: subcutaneous, morphine 15 mg./kg. sc., 50 percent reduction of analgesic effect, as free base; for ED50: rat, read-out: ED50 Antagonist Activity, Morphine Antagonism Rat Tail Flick. The method, then:
(§1) In vivo testing was conducted on various compounds of the instant invention in the form of their respective soluble salts to determine their agonist and/or antagonist properties. The figures reported are the number of milligrams/kilogram of body weight of compound that produced an agonist or antagonist effect in 50% of the mice and rats so tested (ED50). All data is obtained by subcutaneous administration.
(15 mg./kg. sc.) as measured by the rat tail flick procedure (Harris, L.
S. and Pierson, A. K., J. Pharmacol. & Expt. Therap., 143, 141; 1964).

The subject of assay [2] is phenylquinone induced writhing. Description: Phenylquinone writhing, agonist activity, mouse. The settings on record: subcutaneous, 50 percent reduction in number of writhing, as free base; for ED50: sc. The method, then:
as §1
(§2) ^1 A 50 percent reduction in number of phenylquinone induced writhing
(§3) (Siegmund, E. A. et al., Proc. Soc. Biol. & Med. 95, 729; 1957).

For assay [3], the system named is Straub Tail induced by oxymorphone. Nature of the assay: Antagonism of oxymorphone-induced Straub Tail. To be noted: mice, subcutaneous, oxymorphone 2 mg./kg. sc., as free base; for ED50: Mus musculus, read-out: ED50 Antagonist Activity, Oxymorphone Straub Tail. The method, then: as §1
^2 Antagonism of Straub Tail induced by oxymorphone (2 mg./kg. sc.) i

Assay [4] has as its system righting reflex loss induced by oxymorphone. Description: animal or person. The settings on record: rats, subcutaneous, oxymorphone 1.5 mg./kg. sc., as free base; for ED50: Rattus norvegicus, read-out: ED50 Antagonist Activity, Oxymorphone Narcosis. The method, then:
as §1
^3 Antagonism of righting reflex loss induced by oxymorphone (1.5
mg./kg. sc.) in 50 percent of rats.

Assay [5] concerns phenylquinone induced writhing. Description: Phenylquinone writhing, agonist activity, rat. To be noted: subcutaneous, 50 percent reduction in number of writhing, as free base. The method, then:
as §1, §2, §3
Background: An intraperitoneal irritant provokes the stretching counted in writhing tests.

For orientation: ED50 means the dose at which the effect has come halfway, by size or by number of responders. In the case of `CCCC12CCN(CC3CC3)C(Cc3ccc(O)cc31)C2OC` (racemic) [dl-XIIn, 2-cyclopropylmethyl-2'-hydroxy-9α-methoxy-5-propyl-6,7-benzomorphan], the ED50 in assay [1] was determined as 0.033 mg/kg; in assay [2], 0.2 mg/kg.
Regarding `COC1(C)C2Cc3ccc(O)cc3C1(C)CCN2CC1CCC1` (racemic) [dl-XIIv, 2-Cyclobutylmethyl-5,9β-dimethyl-2'-hydroxy-9β-methoxy-6,7-benzomorphan], in assay [3], the “ED50 Antagonist Activity, Oxymorphone Straub Tail” value stood at 7.5 mg/kg. Moreover, the “ED50 Agonist Activity, Phenylquinone Writhing, Mouse” value in assay [2] was determined as 0.19 mg/kg.
For `CO[C@H]1[C@H]2Cc3ccc(O)cc3[C@]1(C)CCN2CC1CC1` (relative stereo) [dl-XIIa, 2-Cyclopropylmethyl-2'-hydroxy-9α-methoxy-5-methyl-6,7-benzomorphan], the ED50 in assay [4] is 0.04 mg/kg; in assay [1] it was 0.06 mg/kg; in assay [5] (sc) it was 0.034 mg/kg; in assay [3], 0.24 mg/kg; in assay [2] it was 0.087 mg/kg.
Take `CO[C@@]1(C)[C@H]2Cc3ccc(O)cc3[C@]1(C)CCN2CC1CC1` (relative stereo) [dl-XIIb, 2-Cyclopropylmethyl-5,9β-dimethyl-2'-hydroxy-9α-methoxy-6,7-benzomorphan]: the ED50 in assay [4] was around 0.017 mg/kg; in assay [1], 0.011 mg/kg; in assay [3], 0.16 mg/kg; in assay [2], 1.25 mg/kg.
In the case of `CO[C@@]1(C)[C@H]2Cc3ccc(O)cc3[C@]1(C)CCN2CC1CCC1` (relative stereo) [dl-XIIc, 2-Cyclobutylmethyl-5,9β-dimethyl-2'-hydroxy-9α-methoxy-6,7-benzomorphan], the ED50 in assay [3] came out at 1.25 mg/kg; in assay [2] it was 2.18 mg/kg.
For the compound `CCO[C@H]1[C@H]2Cc3ccc(O)cc3[C@]1(C)CCN2CC1CC1` (relative stereo) [dl-XIId, 2-Cyclopropylmethyl-9α-ethoxy-2'-hydroxy-5-methyl-6,7-benzomorphan], the ED50 stood at 0.029 mg/kg in assay [1], 0.32 mg/kg in assay [3] and 0.33 mg/kg in assay [2].
Consider `C=CCO[C@H]1[C@H]2Cc3ccc(O)cc3[C@]1(C)CCN2CC1CC1` (relative stereo) [dl-XIIe, 9α-Allyloxy-2-cyclopropylmethyl-2'-hydroxy-5-methyl-6,7-benzomorphan], for which the figures for the ED50 in assay [3] and in assay [2] were around 0.63 mg/kg and 5.3 mg/kg, respectively.
For `C=CC[C@]12CCN(CC3CC3)[C@H](Cc3ccc(O)cc31)[C@@H]2OC` (relative stereo) [dl-XIIm, 5-Allyl-2-cyclopropylmethyl-2'-hydroxy-9α-methoxy-6,7-benzomorphan], the ED50 was found to be 0.046 mg/kg in assay [1] and 0.026 mg/kg in assay [2].
Turning to `CO[C@]1(C)[C@H]2Cc3ccc(O)cc3[C@]1(C)CCN2CC1CC1` (relative stereo) [dl-XIIr, 2-Cyclopropylmethyl-5,9α-dimethyl-2'-hydroxy-9β-methoxy-6,7-benzomorphan], the median effective dose (ED50) in assay [3] was 3.5 mg/kg; in assay [2], 1.8 mg/kg.
Consider `CO[C@@H]1[C@H]2Cc3ccc(O)cc3[C@]1(C)CCN2CC1CC1` (relative stereo) [dl-XIIt, 2-Cyclopropylmethyl-2'-hydroxy-9β-methoxy-5-methyl-6,7-benzomorphan], for which the ED50 in assay [1] was 0.18 mg/kg; in assay [3], around 7 mg/kg; in assay [2], around 20 mg/kg.
Consider `COC1C2Cc3ccc(O)cc3C1(C)CCN2CC1CC1` (single isomer, unassigned; (-)) [l-XIIa, (-)-2-Cyclopropylmethyl-2'-hydroxy-9α-methoxy-5-methyl-6,7-benzomorphan], for which the “ED50 Antagonist Activity, Oxymorphone Narcosis” value in assay [4] is 0.017 mg/kg. The “ED50 Antagonist Activity, Morphine Antagonism Rat Tail Flick” value in assay [1] was 0.019 mg/kg. Further, the “ED50 Agonist Activity, Phenylquinone Writhing, Rat” value in assay [5] is 0.021 mg/kg. For the same compound, in assay [3], the “ED50 Antagonist Activity, Oxymorphone Straub Tail” value was 0.10 mg/kg. In addition, the “ED50 Agonist Activity, Phenylquinone Writhing, Mouse” value in assay [2] amounted to 0.053 mg/kg.
For `CC(C)=CCN1CCC2(C)c3cc(O)ccc3CC1C2C` (stereo not drawn) [Pentazocine, reference compound], the ED50 in assay [4] came to 10.1 mg/kg.
